Strand notation (5' to 3'): a small letter for the sugar, then the base; units joined by * are phosphorothioate-linked, units joined directly phosphodiester-linked; [ ] holds rarer units or linkages, { } end groups; capitals alone tell only the bases. e = 2'-O-(2-methoxyethyl) (MOE); [5mC] = 5-methylcytosine; d = 2'-deoxy (DNA)
Tested on: human Factor 11 mRNA
Experiment: Antisense inhibition of human Factor 11 in HepG2 cells by microwalk gapmers, lipofectin, 75 nM (Example 3)
Format: cell-based
How it was run: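 HepG2 cells (10,000/well) were transfected via lipofectin with 75 nM 20-mer MOE gapmers (phosphorothioate, 5-methyl-C) for about 24 h. Factor 11 mRNA was measured by qRT-PCR, normalized to RIBOGREEN total RNA, and given as percent inhibition versus untreated cells.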

[1] = HepG2, lipofectin, ~24 h, gapmers targeted to nucleobases 656 to 704 of SEQ ID NO: 1
[2] = HepG2 cells, lipofectin, gapmers targeted to nucleobases 738 to 762 of SEQ ID NO: 1
[3] = HepG2 cells, lipofectin, gapmers targeted to nucleobases 1018 to 1042 of SEQ ID NO: 1
[4] = HepG2 cells, lipofectin, gapmers targeted to nucleobases 1062 to 1091 of SEQ ID NO: 1
[5] = HepG2 cells, lipofectin, gapmers targeted to nucleobases 1275 to 1318 of SEQ ID NO: 1

Substance	% inhibition [1] [%]	also measured
416948 (antisense eA*eT*dA*dA*dA*dT*dG*dT*d[5mC]*dT*dT*dT*dG*dT*dT*eG*e[5mC]*eA*eA*eG) [compound 416948]	62	–
416949 (antisense e[5mC]*eA*dT*dA*dA*dA*dT*dG*dT*d[5mC]*dT*dT*dT*dG*dT*eT*eG*e[5mC]*eA*eA) [compound 416949]	64	–
416950 (antisense eA*e[5mC]*dA*dT*dA*dA*dA*dT*dG*dT*d[5mC]*dT*dT*dT*dG*eT*eT*eG*e[5mC]*eA) [compound 416950]	71	–
416951 (antisense e[5mC]*eA*d[5mC]*dA*dT*dA*dA*dA*dT*dG*dT*d[5mC]*dT*dT*dT*eG*eT*eT*eG*e[5mC]) [compound 416951]	48	–
416952 (antisense e[5mC]*e[5mC]*dA*d[5mC]*dA*dT*dA*dA*dA*dT*dG*dT*d[5mC]*dT*dT*eT*eG*eT*eT*eG) [compound 416952]	51	–
416953 (antisense eT*e[5mC]*d[5mC]*dA*d[5mC]*dA*dT*dA*dA*dA*dT*dG*dT*d[5mC]*dT*eT*eT*eG*eT*eT) [compound 416953]	45	–
416954 (antisense eG*eT*d[5mC]*d[5mC]*dA*d[5mC]*dA*dT*dA*dA*dA*dT*dG*dT*d[5mC]*eT*eT*eT*eG*eT) [compound 416954]	61	–
416955 (antisense eG*eG*dT*d[5mC]*d[5mC]*dA*d[5mC]*dA*dT*dA*dA*dA*dT*dG*dT*e[5mC]*eT*eT*eT*eG) [compound 416955]	75	–
416956 (antisense eA*eG*dG*dT*d[5mC]*d[5mC]*dA*d[5mC]*dA*dT*dA*dA*dA*dT*dG*eT*e[5mC]*eT*eT*eT) [compound 416956]	61	–
416957 (antisense eT*eA*dG*dG*dT*d[5mC]*d[5mC]*dA*d[5mC]*dA*dT*dA*dA*dA*dT*eG*eT*e[5mC]*eT*eT) [compound 416957]	59	–
416958 (antisense e[5mC]*eT*dA*dG*dG*dT*d[5mC]*d[5mC]*dA*d[5mC]*dA*dT*dA*dA*dA*eT*eG*eT*e[5mC]*eT) [compound 416958]	43	–
416959 (antisense eT*e[5mC]*dT*dA*dG*dG*dT*d[5mC]*d[5mC]*dA*d[5mC]*dA*dT*dA*dA*eA*eT*eG*eT*e[5mC]) [compound 416959]	25	–
416960 (antisense eG*eT*d[5mC]*dT*dA*dG*dG*dT*d[5mC]*d[5mC]*dA*d[5mC]*dA*dT*dA*eA*eA*eT*eG*eT) [compound 416960]	60	–
416961 (antisense eT*eG*dT*d[5mC]*dT*dA*dG*dG*dT*d[5mC]*d[5mC]*dA*d[5mC]*dA*dT*eA*eA*eA*eT*eG) [compound 416961]	40	–
416962 (antisense eA*eT*dG*dT*d[5mC]*dT*dA*dG*dG*dT*d[5mC]*d[5mC]*dA*d[5mC]*dA*eT*eA*eA*eA*eT) [compound 416962]	77	–
416963 (antisense e[5mC]*eA*dT*dG*dT*d[5mC]*dT*dA*dG*dG*dT*d[5mC]*d[5mC]*dA*d[5mC]*eA*eT*eA*eA*eA) [compound 416963]	48	–
416964 (antisense eT*e[5mC]*dA*dT*dG*dT*d[5mC]*dT*dA*dG*dG*dT*d[5mC]*d[5mC]*dA*e[5mC]*eA*eT*eA*eA) [compound 416964]	69	–
416965 (antisense eT*eT*d[5mC]*dA*dT*dG*dT*d[5mC]*dT*dA*dG*dG*dT*d[5mC]*d[5mC]*eA*e[5mC]*eA*eT*eA) [compound 416965]	53	–
416966 (antisense e[5mC]*eT*dT*d[5mC]*dA*dT*dG*dT*d[5mC]*dT*dA*dG*dG*dT*d[5mC]*e[5mC]*eA*e[5mC]*eA*eT) [compound 416966]	64	–
416967 (antisense e[5mC]*e[5mC]*dT*dT*d[5mC]*dA*dT*dG*dT*d[5mC]*dT*dA*dG*dG*dT*e[5mC]*e[5mC]*eA*e[5mC]*eA) [compound 416967]	75	–
416968 (antisense e[5mC]*e[5mC]*d[5mC]*dT*dT*d[5mC]*dA*dT*dG*dT*d[5mC]*dT*dA*dG*dG*eT*e[5mC]*e[5mC]*eA*e[5mC]) [compound 416968]	73	–
416970 (antisense eT*eG*d[5mC]*d[5mC]*d[5mC]*dT*dT*d[5mC]*dA*dT*dG*dT*d[5mC]*dT*dA*eG*eG*eT*e[5mC]*e[5mC]) [compound 416970]	88	–
416971 (antisense eA*eT*dG*d[5mC]*d[5mC]*d[5mC]*dT*dT*d[5mC]*dA*dT*dG*dT*d[5mC]*dT*eA*eG*eG*eT*e[5mC]) [compound 416971]	83	–
416974 (antisense eT*eT*dT*dA*dT*dG*d[5mC]*d[5mC]*d[5mC]*dT*dT*d[5mC]*dA*dT*dG*eT*e[5mC]*eT*eA*eG) [compound 416974]	73	–

Substance	% inhibition [1] [%]	also measured
416975 (antisense e[5mC]*e[5mC]*dG*dT*dG*d[5mC]*dA*dT*d[5mC]*dT*dT*dT*d[5mC]*dT*dT*eG*eG*e[5mC]*eA*eT) [compound 416975]	–	% inhibition [2]: 87%
416976 (antisense eT*e[5mC]*d[5mC]*dG*dT*dG*d[5mC]*dA*dT*d[5mC]*dT*dT*dT*d[5mC]*dT*eT*eG*eG*e[5mC]*eA) [compound 416976]	–	% inhibition [2]: 83%
416977 (antisense eA*eT*d[5mC]*d[5mC]*dG*dT*dG*d[5mC]*dA*dT*d[5mC]*dT*dT*dT*d[5mC]*eT*eT*eG*eG*e[5mC]) [compound 416977]	–	% inhibition [2]: 82%
416978 (antisense e[5mC]*eA*dT*d[5mC]*d[5mC]*dG*dT*dG*d[5mC]*dA*dT*d[5mC]*dT*dT*dT*e[5mC]*eT*eT*eG*eG) [compound 416978]	–	% inhibition [2]: 76%
416979 (antisense eT*e[5mC]*dA*dT*d[5mC]*d[5mC]*dG*dT*dG*d[5mC]*dA*dT*d[5mC]*dT*dT*eT*e[5mC]*eT*eT*eG) [compound 416979]	–	% inhibition [2]: 63%
416980 (antisense eG*eT*d[5mC]*dA*dT*d[5mC]*d[5mC]*dG*dT*dG*d[5mC]*dA*dT*d[5mC]*dT*eT*eT*e[5mC]*eT*eT) [compound 416980]	–	% inhibition [2]: 87%
416981 (antisense e[5mC]*e[5mC]*dG*dG*dG*dA*dT*dG*dA*dT*dG*dA*dG*dT*dG*e[5mC]*eA*eG*eA*eT) [compound 416981]	–	% inhibition [3]: 87%
416982 (antisense eA*e[5mC]*d[5mC]*dG*dG*dG*dA*dT*dG*dA*dT*dG*dA*dG*dT*eG*e[5mC]*eA*eG*eA) [compound 416982]	–	% inhibition [3]: 84%
416983 (antisense eA*eA*d[5mC]*d[5mC]*dG*dG*dG*dA*dT*dG*dA*dT*dG*dA*dG*eT*eG*e[5mC]*eA*eG) [compound 416983]	–	% inhibition [3]: 86%
416986 (antisense eA*eT*dT*d[5mC]*dT*dT*dT*dG*dG*dG*d[5mC]*d[5mC]*dA*dT*dT*e[5mC]*e[5mC]*eT*eG*eG) [compound 416986]	–	% inhibition [4]: 88%
416987 (antisense eG*eA*dT*dT*d[5mC]*dT*dT*dT*dG*dG*dG*d[5mC]*d[5mC]*dA*dT*eT*e[5mC]*e[5mC]*eT*eG) [compound 416987]	–	% inhibition [4]: 80%
416988 (antisense eA*eG*dA*dT*dT*d[5mC]*dT*dT*dT*dG*dG*dG*d[5mC]*d[5mC]*dA*eT*eT*e[5mC]*e[5mC]*eT) [compound 416988]	–	% inhibition [4]: 76%
416990 (antisense eT*eG*dA*dG*dA*dT*dT*d[5mC]*dT*dT*dT*dG*dG*dG*d[5mC]*e[5mC]*eA*eT*eT*e[5mC]) [compound 416990]	–	% inhibition [4]: 76%
416991 (antisense eT*eT*dG*dA*dG*dA*dT*dT*d[5mC]*dT*dT*dT*dG*dG*dG*e[5mC]*e[5mC]*eA*eT*eT) [compound 416991]	–	% inhibition [4]: 87%
416992 (antisense eT*eT*dT*dG*dA*dG*dA*dT*dT*d[5mC]*dT*dT*dT*dG*dG*eG*e[5mC]*e[5mC]*eA*eT) [compound 416992]	–	% inhibition [4]: 84%
416994 (antisense eT*e[5mC]*dT*dT*dT*dG*dA*dG*dA*dT*dT*d[5mC]*dT*dT*dT*eG*eG*eG*e[5mC]*e[5mC]) [compound 416994]	–	% inhibition [4]: 83%
416995 (antisense eT*eT*d[5mC]*dT*dT*dT*dG*dA*dG*dA*dT*dT*d[5mC]*dT*dT*eT*eG*eG*eG*e[5mC]) [compound 416995]	–	% inhibition [4]: 64%
416996 (antisense eT*eT*dT*d[5mC]*dT*dT*dT*dG*dA*dG*dA*dT*dT*d[5mC]*dT*eT*eT*eG*eG*eG) [compound 416996]	–	% inhibition [4]: 22%
416997 (antisense eA*e[5mC]*dA*dG*dT*dT*dT*d[5mC]*dT*dG*dG*d[5mC]*dA*dG*dG*e[5mC]*e[5mC]*eT*e[5mC]*eG) [compound 416997]	–	% inhibition [5]: 84%
416998 (antisense e[5mC]*eA*d[5mC]*dA*dG*dT*dT*dT*d[5mC]*dT*dG*dG*d[5mC]*dA*dG*eG*e[5mC]*e[5mC]*eT*e[5mC]) [compound 416998]	–	% inhibition [5]: 88%
417001 (antisense eG*eT*dG*d[5mC]*dA*d[5mC]*dA*dG*dT*dT*dT*d[5mC]*dT*dG*dG*e[5mC]*eA*eG*eG*e[5mC]) [compound 417001]	–	% inhibition [5]: 83%
417004 (antisense eT*eT*dG*dG*dT*dG*d[5mC]*dA*d[5mC]*dA*dG*dT*dT*dT*d[5mC]*eT*eG*eG*e[5mC]*eA) [compound 417004]	–	% inhibition [5]: 86%
417005 (antisense eA*eT*dT*dG*dG*dT*dG*d[5mC]*dA*d[5mC]*dA*dG*dT*dT*dT*e[5mC]*eT*eG*eG*e[5mC]) [compound 417005]	–	% inhibition [5]: 79%
417006 (antisense e[5mC]*eA*dT*dT*dG*dG*dT*dG*d[5mC]*dA*d[5mC]*dA*dG*dT*dT*eT*e[5mC]*eT*eG*eG) [compound 417006]	–	% inhibition [5]: 81%
